Data: patent US20240217967A1, “INDOLINE DERIVATIVES AS DDRS INHIBITORS” (CHIESI FARMACEUTICI S.P.A., priority 2021, published 2024)

How the values were obtained:
DDR1 [1] = biological target: T1, DDR1 (Homo sapiens, UniProt Q08345); assay: DDR1 LanthaScreen Europium Kinase Binding assay; settings: binding affinity; IC50 converted in Ki using Cheng-Prusoff; read-out: Ki DDR1
Protocol: (§1) DDR1 and DDR2 binding assays were performed using Life Technologies LanthaScreen™ Europium Kinase Binding assay. The compounds were incubated with 5 nM DDR1 (Carna Biosciences) or 5 nM DDR2 (Life Technologies) for 1 hour at room temperature in white 384-well OptiPlate (PerkinElmer), containing 20 nM or 10 nM Kinase Tracer 178 respectively and 2 nM Europium labelled anti-GST antibody (Life Technologies) in assay buffer (50 mM HEPES pH 7.5, 10 mM MgCI2, 1 mM EGTA and 0.01% BRIJ35). The ratio of fluorescence emission 665 nm/615 nm after excitation at 340 nm was obtained using the Tecan Spark 20M plate reader. IC50 values were determined in GraphPad Prism 7.0 software, using 4 parameter model: log(inhibitor) vs. response. IC50 values were converted in Ki using the Cheng-Prusoff equation (Ki=IC50/(1+[Tracer]/Kd).

DDR2 = biological target: T2, DDR2 (Homo sapiens, UniProt Q16832); assay: DDR2 LanthaScreen Europium Kinase Binding assay; settings: binding affinity; IC50 converted in Ki using Cheng-Prusoff; read-out: Ki DDR2
T2 sequence (Q16832 22-855): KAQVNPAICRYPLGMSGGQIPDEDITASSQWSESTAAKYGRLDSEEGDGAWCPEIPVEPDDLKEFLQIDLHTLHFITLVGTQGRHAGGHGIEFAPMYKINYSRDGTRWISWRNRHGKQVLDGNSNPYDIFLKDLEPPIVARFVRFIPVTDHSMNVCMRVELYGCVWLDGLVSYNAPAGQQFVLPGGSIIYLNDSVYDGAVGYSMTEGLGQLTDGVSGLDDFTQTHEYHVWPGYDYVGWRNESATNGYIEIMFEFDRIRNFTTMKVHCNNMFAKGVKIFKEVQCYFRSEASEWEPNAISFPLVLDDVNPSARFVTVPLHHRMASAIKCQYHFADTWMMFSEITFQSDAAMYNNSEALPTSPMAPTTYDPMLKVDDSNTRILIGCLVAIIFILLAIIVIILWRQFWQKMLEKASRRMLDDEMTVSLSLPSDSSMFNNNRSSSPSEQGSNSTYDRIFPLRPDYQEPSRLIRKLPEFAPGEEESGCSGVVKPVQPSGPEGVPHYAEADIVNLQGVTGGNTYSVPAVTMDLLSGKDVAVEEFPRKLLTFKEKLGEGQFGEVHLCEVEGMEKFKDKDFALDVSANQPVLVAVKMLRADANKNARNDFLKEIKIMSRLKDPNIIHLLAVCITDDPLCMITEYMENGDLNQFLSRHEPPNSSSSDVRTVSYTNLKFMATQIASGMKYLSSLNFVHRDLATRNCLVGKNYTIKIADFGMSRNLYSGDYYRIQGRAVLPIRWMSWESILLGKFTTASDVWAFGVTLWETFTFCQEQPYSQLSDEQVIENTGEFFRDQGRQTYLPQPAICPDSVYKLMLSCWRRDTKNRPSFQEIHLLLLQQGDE
Protocol: as §1

DDR1 [2] = biological target: T1, DDR1; assay: DDR1 cell based assay (PathHunter U2OS DDR1, collagen II stimulation); settings: U2OS-DDR1 cells, bovine Type II Collagen stimulation
Protocol: The inhibition of DDR1 receptor activation by compounds was evaluated by PathHunter® U2OS DDR1 assay (Eurofins DiscoverX), according to the manufacturer's instructions. Briefly, U2OS-DDR1 cells were seeded in white 384-well plates at a density of 5000 cells/well and incubated for 2 hours at 37° C. and 5% CO2. Cells were then treated with compounds at different concentrations and incubated for 30 minutes, before stimulation with bovine Type II Collagen 20 μg/ml and incubation overnight at 37° C. and 5% CO2. PathHunter Detection Reagents were prepared according to the protocol provided by DiscoverX and 20 μl/well of this mix were added to each well. After incubating the plates for 1 hour at room temperature in the dark, luminescence signal was acquired with a plate reader. Raw data were normalized to vehicle control (0% for normalization) and positive control (100% for normalization; cells treated with 20 μg/ml collagen II) and IC50 parameters were calculated in GraphPad Prism 8.0 software, using sigmoidal dose-response curve fitting with variable slope.

T1 sequence (Q08345 19-913): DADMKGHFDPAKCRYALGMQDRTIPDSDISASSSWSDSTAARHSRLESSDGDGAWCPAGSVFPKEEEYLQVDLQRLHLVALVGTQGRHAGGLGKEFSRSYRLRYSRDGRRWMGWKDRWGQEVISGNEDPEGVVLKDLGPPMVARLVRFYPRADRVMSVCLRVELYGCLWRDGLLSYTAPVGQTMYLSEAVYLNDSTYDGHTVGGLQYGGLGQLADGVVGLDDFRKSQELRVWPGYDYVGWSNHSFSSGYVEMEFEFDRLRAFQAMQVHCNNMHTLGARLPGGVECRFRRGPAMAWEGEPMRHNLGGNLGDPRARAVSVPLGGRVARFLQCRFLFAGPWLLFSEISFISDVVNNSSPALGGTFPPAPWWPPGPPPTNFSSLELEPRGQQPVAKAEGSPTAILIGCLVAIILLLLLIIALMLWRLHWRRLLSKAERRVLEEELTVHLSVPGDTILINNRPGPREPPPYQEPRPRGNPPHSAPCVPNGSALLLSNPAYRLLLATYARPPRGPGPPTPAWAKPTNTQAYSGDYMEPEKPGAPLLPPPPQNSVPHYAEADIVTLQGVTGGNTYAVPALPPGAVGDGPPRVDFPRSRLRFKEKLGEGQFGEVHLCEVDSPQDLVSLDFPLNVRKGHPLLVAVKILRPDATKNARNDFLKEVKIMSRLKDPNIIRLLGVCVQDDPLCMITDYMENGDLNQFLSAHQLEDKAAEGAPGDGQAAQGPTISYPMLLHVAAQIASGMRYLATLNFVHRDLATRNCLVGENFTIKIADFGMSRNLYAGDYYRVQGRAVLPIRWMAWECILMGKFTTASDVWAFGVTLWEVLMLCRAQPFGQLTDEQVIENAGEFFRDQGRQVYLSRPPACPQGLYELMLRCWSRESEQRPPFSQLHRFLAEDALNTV

Structure (SMILES)	Ki (DDR1 [1]) [nM]	Ki (DDR2) [nM]	IC50 (DDR1 [2]) [nM]
CN1CCN(Cc2cc(C(=O)Nc3ccc4c(c3)N(C(=O)c3cnc5ccccn35)CC4)cc(C(F)(F)F)c2)CC1 [Example 16, N-(1-(imidazo[1,2-a]pyridine-3-carbonyl)indolin-6-yl)-3-((4-methylpiperazin-1-yl)methyl)-5-(trifluoromethyl)benzamide]	< 25	< 25	25 to 50
CN1CCN(Cc2ccc(NC(=O)c3ccc4c(c3)N(Cc3cnc5ccnn5c3)CC4)cc2C(F)(F)F)CC1 [Example 76, N-(4-((4-methylpiperazin-1-yl)methyl)-3-(trifluoromethyl)phenyl)-1-(pyrazolo[1,5-a]pyrimidin-6-ylmethyl)indoline-6-carboxamide]	< 25	< 25	< 25
O=C(Nc1cc(F)cc(OC(F)(F)F)c1)c1ccc2c(c1)N(Cc1cnc3ccccn13)CC2 [Example 56, N-(3-fluoro-5-(trifluoromethoxy)phenyl)-1-(imidazo[1,2-a]pyridin-3-ylmethyl)indoline-6-carboxamide]	< 25	< 25	25 to 50
Cc1n[nH]c2ncc(CN3CCc4ccc(C(=O)Nc5cc(CN6CCN(C)CC6)cc(C(F)(F)F)c5)cc43)cc12 [Example 68, 1-((3-methyl-1H-pyrazolo[3,4-b]pyridin-5-yl)methyl)-N-(3-((4-methylpiperazin-1-yl)methyl)-5-(trifluoromethyl)phenyl)indoline-6-carboxamide]	< 25	< 25	< 25
CC(C)(C)c1cc(NC(=O)c2ccc3c(c2)N(Cc2cnc4cnccn24)CC3)on1 [Example 79, N-(3-(tert-butyl)isoxazol-5-yl)-1-(imidazo[1,2-a]pyrazin-3-ylmethyl)indoline-6-carboxamide]	< 25	< 25	50 to 80
O=C(Nc1cc(F)cc(OC(F)(F)F)c1)c1ccc2c(c1)N(Cc1cnc3cnccn13)CC2 [Example 44, N-(3-fluoro-5-(trifluoromethoxy)phenyl)-1-(imidazo[1,2-a]pyrazin-3-ylmethyl)indoline-6-carboxamide]	< 25	< 25	< 25
Cc1n[nH]c2ncc(CN3CCc4ccc(C(=O)Nc5ccc(CN6CCCC6)c(C(F)(F)F)c5)cc43)cc12 [Example 70, 1-((3-methyl-1H-pyrazolo[3,4-b]pyridin-5-yl)methyl)-N-(4-(pyrrolidin-1-ylmethyl)-3-(trifluoromethyl)phenyl)indoline-6-carboxamide]	< 25	< 25	25 to 50
O=C(Nc1cccc(C(F)(F)F)c1)c1ccc2c(c1)N(Cc1cnc3ccnn3c1)CC2 [Example 63, 1-(pyrazolo[1,5-a]pyrimidin-6-ylmethyl)-N-(3-(trifluoromethyl)phenyl)indoline-6-carboxamide]	< 25	< 25	50 to 80
O=C(Nc1cc(CN2CCCC2)cc(C(F)(F)F)c1)c1ccc2c(c1)N(Cc1cnc3cnccn13)CC2 [Example 50, 1-(imidazo[1,2-a]pyrazin-3-ylmethyl)-N-(3-(pyrrolidin-1-ylmethyl)-5-(trifluoromethyl)phenyl)indoline-6-carboxamide]	< 25	< 25	25 to 50
CN(C)Cc1c[nH]c2ncc(CN3CCc4ccc(C(=O)Nc5cncc(C(F)(F)F)c5)cc43)cc12 [Example 83, 1-((3-((dimethylamino)methyl)-1H-pyrrolo[2,3-b]pyridin-5-yl)methyl)-N-(5-(trifluoromethyl)pyridin-3-yl)indoline-6-carboxamide]	< 25	< 25	< 25
O=C(Nc1cccc(C(F)(F)F)c1)c1ccc2c(c1)N(Cc1cnc3ccccn13)CC2 [Example 57, 1-(imidazo[1,2-a]pyridin-3-ylmethyl)-N-(3-(trifluoromethyl)phenyl)indoline-6-carboxamide]	25 to 50	50 to 80	25 to 50
Cc1cn(-c2cc(NC(=O)c3ccc4c(c3)N(Cc3ccc5[nH]ncc5c3)CC4)cc(C(F)(F)F)c2)cn1 [Example 8, 1-((1H-indazol-5-yl)methyl)-N-(3-(4-methyl-1H-imidazol-1-yl)-5-(trifluoromethyl)phenyl)indoline-6-carboxamide]	25 to 50	25 to 50	50 to 80
CN1CCN(Cc2cc(C(=O)Nc3ccc4c(c3)N(Cc3ccc5ncsc5c3)CC4)cc(C(F)(F)F)c2)CC1 [Example 17, N-(1-(benzo[d]thiazol-6-ylmethyl)indolin-6-yl)-3-((4-methylpiperazin-1-yl)methyl)-5-(trifluoromethyl)benzamide]	< 25	< 25	25 to 50
Cc1cn(-c2cc(NC(=O)c3ccc4c(c3)N(Cc3ccc5[nH]cnc5c3)CC4)cc(C(F)(F)F)c2)cn1 [Example 4, 1-((1H-benzo[d]imidazol-5-yl)methyl)-N-(3-(4-methyl-1H-imidazol-1-yl)-5-(trifluoromethyl)phenyl)indoline-6-carboxamide]	< 25	< 25	25 to 50
CCC1CN(Cc2cnc3cnccn23)c2cc(C(=O)Nc3cc(-n4cnc(C)c4)cc(C(F)(F)F)c3)ccc21 (single isomer, unassigned) [Example 64, 3-ethyl-1-(imidazo[1,2-a]pyrazin-3-ylmethyl)-N-(3-(4-methyl-1H-imidazol-1-yl)-5-(trifluoromethyl)phenyl)indoline-6-carboxamide]	< 25	< 25	25 to 50
O=C(Nc1cc(OCCN2CCOCC2)cc(C(F)(F)F)c1)c1ccc2c(c1)N(Cc1cnc3cnccn13)CC2 [Example 53, 1-(imidazo[1,2-a]pyrazin-3-ylmethyl)-N-(3-(2-morpholinoethoxy)-5-(trifluoromethyl)phenyl)indoline-6-carboxamide]	< 25	< 25	50 to 80
CN1CCN(Cc2cc(NC(=O)c3ccc4c(c3)N(Cc3cnc5cnccn35)CC4)cc(C(F)(F)F)c2)CC1 [Example 10, 1-(imidazo[1,2-a]pyrazin-3-ylmethyl)-N-(3-((4-methylpiperazin-1-yl)methyl)-5-(trifluoromethyl)phenyl)indoline-6-carboxamide]	< 25	< 25	25 to 50
CN1CCN(Cc2cc(NC(=O)c3ccc4c(c3)N(C(=O)c3cnc5ccccn35)CC4)cc(C(F)(F)F)c2)CC1 [Example 14, 1-(imidazo[1,2-a]pyridine-3-carbonyl)-N-(3-((4-methylpiperazin-1-yl)methyl)-5-(trifluoromethyl)phenyl)indoline-6-carboxamide]	< 25	< 25	25 to 50
CC(C)(c1cc(NC(=O)c2ccc3c(c2)N(Cc2cnc4cnccn24)CC3)no1)C(F)(F)F [Example 45, 1-(imidazo[1,2-a]pyrazin-3-ylmethyl)-N-(5-(1,1,1-trifluoro-2-methylpropan-2-yl)isoxazol-3-yl)indoline-6-carboxamide]	< 25	< 25	25 to 50
Cc1n[nH]c2ncc(CN3CCc4ccc(C(=O)Nc5cc(OCCN6CCCC6)cc(C(F)(F)F)c5)cc43)cc12 [Example 85, 1-((3-methyl-1H-pyrazolo[3,4-b]pyridin-5-yl)methyl)-N-(3-(2-(pyrrolidin-1-yl)ethoxy)-5-(trifluoromethyl)phenyl)indoline-6-carboxamide]	< 25	< 25	< 25
